Laboratory results published in ChEMBL document CHEMBL3885861, “Open TG-GATES”.

Organism: Rattus norvegicus
Assay: Open TG-GATES - Regimen: Daily Repeat
Format: toxicity, organism-based, Sprague-Dawley
Design: regimen Daily Repeat, gender Male, age 6 weeks
Settings: in vivo, po, 0 mg/kg, route gavage, dose level Control; for APTT / Bas / Eos / Fbg / Hb / Ht / Lym / MCH / MCHC / MCV / Mono / Neu / PT / Plat / RBC / Ret / WBC: tissue Blood; for KIDNEY_L / KIDNEY_R / KIDNEY_TOTAL: tissue Kidney; for LIVER: tissue Liver; for A/G / ALP / ALT / AST / BUN / CRE / Ca / Cl / DBIL / GLC / IP / K / LDH / Na / PL / RALB / TBIL / TC / TG / TP / gamma-GTP: tissue Plasma

## CC[C@H]1[C@@H]2C[C@H]3[C@@H]4N(C)c5ccccc5[C@]45C[C@@H]([C@@H]2[C@H]5O)N3[C@@H]1O [AJMALINE]
72 h, time 3 day
  TERMINAL_BW: 211 g
  APTT: 16.4 s
  Bas: 0%
  Eos: 1%
  Fbg: 218.4 mg/dL
  Hb: 13 g/dL
  Ht: 40.1%
  Lym: 75.8%
  MCH: 21.1 pg
  MCHC: 32.4%
  MCV: 65 fL
  Mono: 10.4%
  Neu: 13%
  PT: 11.6 s
  Plat: 115.1 x10_4/uL
  RBC: 617.4 x10_4/ul
  Ret: 8%
  WBC: 104.3 x10_2/uL
  KIDNEY_L: 0.9 g
  KIDNEY_R: 1 g
  KIDNEY_TOTAL: 1.9 g
  LIVER: 10.3 g
  A/G: 2.2
  ALP: 1003.6 IU/L
  ALT: 37 IU/L
  AST: 63.8 IU/L
  BUN: 19.4 mg/dL
  CRE: 0.5 mg/dL
  Ca: 11.1 mg/dL
  Cl: 102.8 meq/L
  DBIL: 0.008 mg/dL
  GLC: 199.8 mg/dL
  IP: 7.4 mg/dL
  K: 4.5 meq/L
  LDH: 87.6 IU/L
  Na: 140 meq/L
  PL: 152.6 mg/dL
  RALB: 3.9 g/dL
  TBIL: 0.3 mg/dL
  TC: 79.4 mg/dL
  TG: 101.4 mg/dL
  TP: 5.8 g/dL
  gamma-GTP: 1.8 IU/L
[…], time 7 day
  TERMINAL_BW: 249.2 g
  APTT: 16.1 s
  Bas: 0%
  Eos: 1%
  Fbg: 220.4 mg/dL
  Hb: 13 g/dL
  Ht: 39.8%
  Lym: 82.2%
  MCH: 20.6 pg
  MCHC: 32.6%
  MCV: 63.3 fL
  Mono: 5%
  Neu: 12.2%
  PT: 11.2 s
  Plat: 125.7 x10_4/uL
  RBC: 629.6 x10_4/ul
  Ret: 7%
  WBC: 107.8 x10_2/uL
  KIDNEY_L: 1 g
  KIDNEY_R: 1.1 g
  KIDNEY_TOTAL: 2.1 g
  LIVER: 12.3 g
  A/G: 1.9
  ALP: 1031.8 IU/L
  ALT: 37.4 IU/L
  AST: 67 IU/L
  BUN: 18.4 mg/dL
  CRE: 0.5 mg/dL
  Ca: 11.1 mg/dL
  Cl: 104.2 meq/L
  DBIL: 0.004 mg/dL
  GLC: 206.8 mg/dL
  IP: 7.9 mg/dL
  K: 4.4 meq/L
  LDH: 80.4 IU/L
  Na: 142.4 meq/L
  PL: 154 mg/dL
  RALB: 3.7 g/dL
  TBIL: 0.3 mg/dL
  TC: 79.8 mg/dL
  TG: 126.4 mg/dL
  TP: 5.7 g/dL
  gamma-GTP: 1.2 IU/L
[…], time 14 day
  TERMINAL_BW: 302.2 g
  APTT: 17.8 s
  Bas: 0%
  Eos: 0.8%
  Fbg: 211.6 mg/dL
  Hb: 13.6 g/dL
  Ht: 41.6%
  Lym: 84.6%
  MCH: 20.6 pg
  MCHC: 32.9%
  MCV: 62.5 fL
  Mono: 4%
  Neu: 11%
  PT: 11.4 s
  Plat: 121.9 x10_4/uL
  RBC: 664.2 x10_4/ul
  Ret: 3.8%
  WBC: 121.7 x10_2/uL
  KIDNEY_L: 1.2 g
  KIDNEY_R: 1.3 g
  KIDNEY_TOTAL: 2.5 g
  LIVER: 13.9 g
  A/G: 1.9
  ALP: 756.6 IU/L
  ALT: 31 IU/L
  AST: 61.4 IU/L
  BUN: 20.6 mg/dL
  CRE: 0.5 mg/dL
  Ca: 10.9 mg/dL
  Cl: 104.2 meq/L
  DBIL: 0.008 mg/dL
  GLC: 206 mg/dL
  IP: 7.2 mg/dL
  K: 4.9 meq/L
  LDH: 90.6 IU/L
  Na: 141.6 meq/L
  PL: 148.4 mg/dL
  RALB: 3.8 g/dL
  TBIL: 0.3 mg/dL
  TC: 69.4 mg/dL
  TG: 126 mg/dL
  TP: 5.8 g/dL
  gamma-GTP: 1.4 IU/L
[…], time 28 day
  TERMINAL_BW: 382 g
  APTT: 17.6 s
  Bas: 0%
  Eos: 1.2%
  Fbg: 226.2 mg/dL
  Hb: 15.2 g/dL
  Ht: 45.3%
  Lym: 83.8%
  MCH: 19.1 pg
  MCHC: 33.5%
  MCV: 57 fL
  Mono: 5.6%
  Neu: 9.6%
  PT: 11.4 s
  Plat: 125.9 x10_4/uL
  RBC: 794.6 x10_4/ul
  Ret: 2%
  WBC: 105.2 x10_2/uL
  KIDNEY_L: 1.4 g
  KIDNEY_R: 1.4 g
  KIDNEY_TOTAL: 2.9 g
  LIVER: 16.5 g
  A/G: 1.9
  ALP: 557 IU/L
  ALT: 29.8 IU/L
  AST: 57.6 IU/L
  BUN: 19.4 mg/dL
  CRE: 0.6 mg/dL
  Ca: 10.3 mg/dL
  Cl: 105.2 meq/L
  DBIL: 0.016 mg/dL
  GLC: 195 mg/dL
  IP: 6.3 mg/dL
  K: 4.7 meq/L
  LDH: 78.2 IU/L
  Na: 142.6 meq/L
  PL: 139 mg/dL
  RALB: 4 g/dL
  TBIL: 0.3 mg/dL
  TC: 62.6 mg/dL
  TG: 136.4 mg/dL
  TP: 6.2 g/dL
  gamma-GTP: 1.6 IU/L
